According to patent US8993320B2, “Culture method to obtain and maintain a pure or enriched population of mammalian neural stem cells and/or neural/progenitor cells that are prone to differentiate into oligodendrocyte-lineage cells in vitro” (priority 2011, dated 2015):

Assays:
Type in all cases: cell-based, human
HFSC cells [1] = assay: Expansion of HFSC cells with growth factors and supplements (live cell count); conditions: for effect on cell status (vacuoles, cell number): supplement to DMEM/F12 with glutamine, pyruvate, B27, 1% NEAA, 1 mM N-acetyl-cysteine, 55 μM β-mercaptoethanol, data not shown; for concentration at which expansion rate / response is saturated: established cell line #2b; for effect on expansion rate: either 50 μM 1-thioglycerol added or PDGF-AA increased to 100 ng/ml (not both), with 10 ng/ml bFGF+10 ng/ml IGF-1, passage 5
Experimental: FIG. 4 illustrates the expansion rate of HFSC cells (cell line #2b) in the presence of different combinations of growth factors: (1): 20 ng/ml PDGF-AA+10 ng/ml bFGF; (2): 20 ng/ml PDGF-AA+10 ng/ml bFGF+5 ng/ml NT-3; (3): 20 ng/ml PDGF-AA+10 ng/ml bFGF+10 ng/ml IGF-1; (4): 20 ng/ml PDGF-AA+10 ng/ml bFGF+5 ng/ml NT-3+10 ng/ml IGF-1. The cells were harvested at day 11 of passage 3 (P3D11) and number of live cells in each condition was counted. Then, they were passaged in the same condition that was used at passage 3 at the same cell density. The cells were harvested at day 8 of passage 4 (P4D8) and number of live cells in each condition was counted (these cells were harvested before they became sub-confluent because they started forming spheres). […] Condition (3) was effective at both passages. FIG. 5 illustrates the effects of high dose of PDGF-AA (100 ng/ml) and 1-thioglycerol on the proliferation of HFSC cells (cell line #2b); cultured in HFSCM1 medium in the presence of the following combinations of growth factors: (1): 20 ng/ml PDGF-AA+10 ng/ml bFGF+10 ng/ml IGF-1; (2): 20 ng/ml PDGF-AA+10 ng/ml bFGF+10 ng/ml IGF-1+50 μM 1-thioglycerol; (3): 100 ng/ml PDGF-AA+10 ng/ml bFGF+10 ng/ml IGF-1; (4): 100 ng/ml PDGF-AA+10 ng/ml bFGF+10 ng/ml IGF-1+50 μM 1-thioglycerol; (5): 100 ng/ml PDGF-AA+10 ng/ml bFGF+50 μM 1-thioglycerol. The cells were harvested at day 7 of passage 5 (these cells were harvested before they became sub-confluent because they started forming spheres as they did at passage 4) and number of live cells in each condition was counted. The combination of 20 ng/ml PDGF-AA+10 ng/ml bFGF was also tested, but the recovered cell number was too low to evaluate (less than 1×10^4 cells which was under the countable range) and its data was eliminated from this figure. The condition (1) could expand cells at passage 3 but couldn't expand cells at passage 5. […] When the addition of 50 μM 1-thioglycerol and the increase of PDGF-AA concentration to 100 ng/ml were combined [condition (4)], the cell expansion rate improved dramatically and the cells could be expanded successfully. […] The cell “expansion rate” refers to the cell number on a particular date divided by the initial cell number at the start of culture. Human 15-week fetal spinal cord was dissected from the spinal column, with the meninges and peripheral nerves removed. The tissue then was dissociated with Accutase and washed and cells obtained from human fetal spinal cord were placed in a culture vessel containing the following growth medium: DMEM/F12 containing 2.5 mM glutamine and 15 mM HEPES, 2% B27 supplement (Invitrogen™), 1% NEAA, 1.5 mM pyruvate (Invitrogen™), 55 μM β-mercaptoethanol (Invitrogen™), 1 mM N-acetyl-L-cysteine (Sigma-Aldrich™), 20 ng/ml PDGF-AA (R&D SYSTEMS™, Inc., Minneapolis, Minn., USA) and 10 ng/ml bFGF (R&D SYSTEMS™). Cells were then placed in an incubator maintained at 37° C., 5% O2, and 5% CO2. bFGF (10 ng/ml) was added daily to the culture medium. Medium was changed every 2-3 days during passage. Based on the preliminary experiments, growing cells were not so many in the presence of PDGF-AA and bFGF and many cells stopped proliferating or died within a few weeks. […] To remove cells that are not responsive to PDGF-AA and bFGF, cells were cultured in an ultra-low adhesion culture plate ([…] Inc., Corning, N.Y., USA). […] Spheres were collected at lower speed of centrifugation (300 rpm for collecting spheres vs. 1,000 rpm for collecting single cells) for medium change and passaging. After 9 days, cells were harvested and passaged onto poly-ornithine-coated culture vessels. After this period, cells were passaged every 7-14 days. […] In addition, the cells began to appear unhealthy, forming vacuoles in their cytoplasm. As mentioned in Example 1, inclusion of PDGF-AA and bFGF in the culture medium supported adequate growth of the HFSC cells initially, but the proliferation rate slowed after 2 passages. […]

HFSC cells [2] = assay: as above; conditions: higher concentration of IGF-1 (50-500 ng/ml)
HFSC cells [3] = assay: Differentiation of HFSC cells in serum-free medium (GD3/O4 staining, morphology)
Experimental: FIG. 7 depicts spontaneous differentiation of HFSC cells in serum-free medium in slides A-F. Slides A and B are phase contrast images taken with an inverted microscope showing the morphological change of HFSC cells (cell line #2b) at passage 12, day 9 (FIG. 7, slides A & B) after being cultured in HFSCM1 medium supplemented with 20 ng/ml PDGF-AA, 10 ng/ml bFGF, 10 ng/ml IGF-1 and 50 μM 1-thioglycerol (FIG. 7, slide A) or without 1-thioglycerol (FIG. 7, slide B). HFSC cells were differentiated spontaneously without replenishing bFGF between changing medium. Even in the same condition, HFSC cells didn't differentiate if bFGF was replenished everyday and seemed to grow slowly. […] The ratio of oligodendrocyte progenitor cells and other cell types to differentiated cells (oligodendrocyte progenitor cells plus other cell types) were calculated and shown in FIG. 15, slide E. Oligodendrocyte progenitor cell was 99.1%±0.56% of differentiated cells whereas other cell types were 0.9%±0.56% of differentiated cells. […]

## OCCS [β-mercaptoethanol, reference compound]
HFSC cells [1]
  effect on cell status (vacuoles, cell number): seemed to improve the cells' status

## CC(=O)N[C@@H](CS)C(=O)O [N-acetyl-cysteine, reference compound]
HFSC cells [1]
  effect on cell status (vacuoles, cell number): seemed to improve the cells' status

## insulin-like growth factor-1 [IGF-1]
HFSC cells [1]
  concentration at which expansion rate / response is saturated: 40 ng/mL
HFSC cells [2]
  differentiated cells seen: around 1%

## OCC(O)CS (stereo not shown) [1-thioglycerol, reference compound]
HFSC cells [1]
  effect on expansion rate: very little positive effect

## Nc1ncnc2c1nc(Sc1ccc(Cl)cc1)n2[C@@H]1O[C@@H]2COP(=O)(O)O[C@H]2[C@H]1O [pCPT-cAMP, reference compound]
HFSC cells [3]; 100 μM, high density (3×10^4 cells/cm^2)
  induction of differentiation: could induce differentiation

## basic fibroblast growth factor [bFGF]
HFSC cells [1]
  concentration at which expansion rate / response is saturated: 20 ng/mL

## platelet derived growth factor-AA [PDGF-AA]
HFSC cells [1]
  effect on expansion rate: very little positive effect
  concentration at which expansion rate / response is saturated: 10 to 20 ng/mL
HFSC cells [3]; 40 ng/ml or higher PDGF-AA
  effect on spontaneous differentiation: blocked to differentiate
